Test results: US8952024B2, “Herbicidal pyrimidone derivatives” (E I du Pont de Nemours and Company, priority 2009, dated 2015)

Assays:
Type in all cases: in vivo
[1] = system: velvetleaf (Abutilon theophrasti); assay: Test A pre-/postemergence plant response; details: for Velvetleaf plant response rating: visual injury, 0 to 100 scale (0 no effect, 100 complete control), approx. ten days
Summary of the method: (§1)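 Both pre- and postemergence treatments are applied simultaneously, using chemicals formulated in a non-phytotoxic solvent mixture with surfactant. Postemergence plants are 2–10 cm high with one to two leaves. After approximately ten days in a greenhouse, injury is scored visually from 0 (none) to 100 (complete control) relative to untreated plants.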

[2] = system: large crabgrass (Digitaria sanguinalis); assay: Test A pre-/postemergence plant response; details: for Crabgrass, Large plant response rating: visual injury, 0 to 100 scale (0 no effect, 100 complete control), approx. ten days
Summary of the method: as §1

[3] = system: morningglory (Ipomoea spp.); assay: Test A pre-/postemergence plant response; details: for Morningglory plant response rating: visual injury, 0 to 100 scale (0 no effect, 100 complete control), approx. ten days
Summary of the method: as §1

[4] = system: wheat (Triticum aestivum); assay: Test A pre-/postemergence plant response; details: for Wheat plant response rating: visual injury, 0 to 100 scale (0 no effect, 100 complete control), approx. ten days
Summary of the method: as §1

[5] = system: green foxtail (Setaria viridis); assay: Test B pre-/postemergence plant response
Summary of the method: (§2)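 Each species received compound formulated in non-phytotoxic solvent with surfactant, either at planting into a loam and sand blend or as a foliar spray once plants reached 2 to 18 cm in peat-based medium. Plants stayed in the greenhouse 13 to 15 days before visual evaluation against controls, scored 0 (no effect) to 100 (complete control).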

[6] = system: morningglory (Ipomoea coccinea); assay: Test B pre-/postemergence plant response
Summary of the method: as §2

[7] = system: downy bromegrass (Bromus tectorum); assay: Test B pre-/postemergence plant response; details: for Bromegrass, Downy plant response rating (0 to 100 scale): postemergence, 0 is no effect, 100 is complete control
Summary of the method: as §2

[8] = system: giant foxtail (Setaria faberii); assay: Test B pre-/postemergence plant response
Summary of the method: as §2

[9] = system: goosegrass (Eleusine indica); assay: Test B pre-/postemergence plant response
Summary of the method: as §2

kochia (Kochia scoparia) = assay: Test B pre-/postemergence plant response
Summary of the method: as §2

[10] = system: pigweed (Amaranthus retroflexus); assay: Test B pre-/postemergence plant response
Summary of the method: as §2

[11] = system: cocklebur (Xanthium strumarium); assay: Test B pre-/postemergence plant response
Summary of the method: as §2

[12] = system: wheat (Triticum aestivum); assay: Test B pre-/postemergence plant response
Summary of the method: as §2

[13] = Postemergence, 125 g ai/ha, 0 to 100 scale where 0 is no effect and 100 is complete control
[14] = Preemergence, 125 g ai/ha, 0 to 100 scale, 0 = no effect, 100 = complete control
[15] = Preemergence, 500 g ai/ha, 0 to 100 scale, 0 = no effect, 100 = complete control
[16] = Postemergence, 31 g ai/ha, 0 to 100 scale (0 no effect, 100 complete control)
[17] = Postemergence, 125 g ai/ha, scale 0 to 100 (0 no effect, 100 complete control)
[18] = Postemergence, 250 g ai/ha, scale 0 to 100 (0 no effect, 100 complete control), 13 to 15 days
[19] = Postemergence, 62 g ai/ha, scale 0 to 100 (0 no effect, 100 complete control)
[20] = Preemergence, 31 g ai/ha, scale 0 to 100 (0 no effect, 100 complete control)
[21] = Preemergence, 62 g ai/ha, scale 0 to 100, 0 no effect, 100 complete control
[22] = Preemergence, 125 g ai/ha, scale 0 to 100, 0 no effect, 100 complete control
[23] = Preemergence, 250 g ai/ha, 0 to 100 scale

SMILES: CCCn1c(-c2cc(Cl)cc(Cl)c2)ncc(C(=O)C2=C(O)CCCC2=O)c1=O [Compound 173]
- Plant response rating, Velvetleaf [1, 13]: 100
- Velvetleaf plant response rating ([1]; Postemergence, 500 g ai/ha): 100
- Plant response rating, Velvetleaf [1, 14]: 70
- Plant response rating, Velvetleaf [1, 15]: 100
- Plant response rating, Crabgrass, Large [2, 13]: 70
- Crabgrass, Large plant response rating ([2]; Postemergence, 500 g ai/ha): 90
- Plant response rating, Crabgrass, Large [2, 14]: 40
- Plant response rating, Crabgrass, Large [2, 15]: 100
- Plant response rating, Morningglory [3, 13]: 100
- Morningglory plant response rating ([3]; Postemergence, 500 g ai/ha): 100
- Plant response rating, Morningglory [3, 14]: 0
- Plant response rating, Wheat [4, 13]: 0
- Wheat plant response rating ([4]; Postemergence, 500 g ai/ha): 60
- Plant response rating, Wheat [4, 14]: 0
- Plant response rating, Wheat [4, 15]: 20
- Plant response rating, Foxtail, Green [5, 16]: 55
- Plant response rating, Foxtail, Green [5, 17]: 90
- Plant response rating, Foxtail, Green [5, 18]: 90
- Plant response rating, Morningglory [6, 16]: 75
- Plant response rating, Morningglory [6, 17]: 80
- Plant response rating, Morningglory [6, 18]: 95
- Bromegrass, Downy plant response rating (0 to 100 scale) ([7]; 62 g ai/ha, 13 to 15 days): 25
- Plant response rating, Bromegrass, Downy [7, 16]: 5
- Plant response rating, Bromegrass, Downy [7, 17]: 40
- Plant response rating, Bromegrass, Downy [7, 18]: 70
- Plant response rating, Foxtail, Giant [8, 16]: 95
- Plant response rating, Foxtail, Giant [8, 17]: 100
- Plant response rating, Foxtail, Giant [8, 18]: 100
- Plant response rating, Goosegrass [9, 16]: 80
- Plant response rating, Goosegrass [9, 17]: 95
- Plant response rating, Goosegrass [9, 18]: 100
- Plant response rating, Kochia (kochia (Kochia scoparia); [16]): 65
- Plant response rating, Kochia (kochia (Kochia scoparia); [17]): 98
- Plant response rating, Kochia (kochia (Kochia scoparia); [18]): 100
- Plant response rating, Pigweed [10, 16]: 85
- Plant response rating, Pigweed [10, 17]: 100
- Plant response rating, Pigweed [10, 18]: 100
- Plant response rating, Cocklebur [11, 16]: 60
- Plant response rating, Cocklebur [11, 17]: 100
- Plant response rating, Cocklebur [11, 18]: 100
- Plant response rating, Wheat [12, 16]: 10
- Plant response rating, Wheat [12, 17]: 40
- Plant response rating, Wheat [12, 18]: 50

SMILES: O=C1CCCC(O)=C1C(=O)c1cnc(-c2ccsc2)n(C2CCOCC2)c1=O [Compound 186]
- Plant response rating, Velvetleaf [1, 13]: 100
- Velvetleaf plant response rating ([1]; Postemergence, 500 g ai/ha): 100
- Plant response rating, Velvetleaf [1, 14]: 60
- Plant response rating, Velvetleaf [1, 15]: 100
- Plant response rating, Crabgrass, Large [2, 13]: 90
- Crabgrass, Large plant response rating ([2]; Postemergence, 500 g ai/ha): 90
- Plant response rating, Crabgrass, Large [2, 14]: 30
- Plant response rating, Crabgrass, Large [2, 15]: 80
- Plant response rating, Morningglory [3, 13]: 100
- Morningglory plant response rating ([3]; Postemergence, 500 g ai/ha): 100
- Plant response rating, Morningglory [3, 14]: 20
- Plant response rating, Morningglory [3, 15]: 90
- Plant response rating, Wheat [4, 13]: 0
- Wheat plant response rating ([4]; Postemergence, 500 g ai/ha): 0
- Plant response rating, Wheat [4, 14]: 0
- Plant response rating, Wheat [4, 15]: 0
- Plant response rating, Foxtail, Green [5, 16]: 50
- Plant response rating, Foxtail, Green [5, 17]: 85
- Plant response rating, Foxtail, Green [5, 18]: 95
- Plant response rating, Morningglory [6, 16]: 95
- Plant response rating, Morningglory [6, 17]: 100
- Plant response rating, Morningglory [6, 18]: 100
- Bromegrass, Downy plant response rating (0 to 100 scale) ([7]; 62 g ai/ha, 13 to 15 days): 25
- Plant response rating, Bromegrass, Downy [7, 16]: 5
- Plant response rating, Bromegrass, Downy [7, 17]: 30
- Plant response rating, Bromegrass, Downy [7, 18]: 50
- Plant response rating, Foxtail, Giant [8, 16]: 75
- Plant response rating, Foxtail, Giant [8, 17]: 95
- Plant response rating, Foxtail, Giant [8, 18]: 95
- Plant response rating, Goosegrass [9, 16]: 85
- Plant response rating, Goosegrass [9, 17]: 98
- Plant response rating, Goosegrass [9, 18]: 100
- Plant response rating, Kochia (kochia (Kochia scoparia); [16]): 75
- Plant response rating, Kochia (kochia (Kochia scoparia); [17]): 100
- Plant response rating, Kochia (kochia (Kochia scoparia); [18]): 100
- Plant response rating, Pigweed [10, 16]: 85
- Plant response rating, Pigweed [10, 17]: 100
- Plant response rating, Pigweed [10, 18]: 100
- Plant response rating, Cocklebur [11, 16]: 90
- Plant response rating, Cocklebur [11, 17]: 100
- Plant response rating, Cocklebur [11, 18]: 100
- Plant response rating, Wheat [12, 16]: 0
- Plant response rating, Wheat [12, 17]: 0
- Plant response rating, Wheat [12, 18]: 5

SMILES: CCCCn1c(C2CC2)ncc(C(=O)C2=C(O)CCCC2=O)c1=O [Compound 193]
- Plant response rating, Velvetleaf [1, 13]: 100
- Velvetleaf plant response rating ([1]; Postemergence, 500 g ai/ha): 100
- Plant response rating, Velvetleaf [1, 14]: 100
- Plant response rating, Velvetleaf [1, 15]: 100
- Plant response rating, Crabgrass, Large [2, 13]: 100
- Crabgrass, Large plant response rating ([2]; Postemergence, 500 g ai/ha): 100
- Plant response rating, Crabgrass, Large [2, 14]: 90
- Plant response rating, Crabgrass, Large [2, 15]: 100
- Plant response rating, Morningglory [3, 13]: 100
- Morningglory plant response rating ([3]; Postemergence, 500 g ai/ha): 100
- Plant response rating, Morningglory [3, 14]: 80
- Plant response rating, Morningglory [3, 15]: 90
- Plant response rating, Wheat [4, 13]: 40
- Wheat plant response rating ([4]; Postemergence, 500 g ai/ha): 70
- Plant response rating, Wheat [4, 14]: 0
- Plant response rating, Wheat [4, 15]: 50
- Plant response rating, Foxtail, Green [5, 16]: 40
- Plant response rating, Foxtail, Green [5, 17]: 60
- Plant response rating, Foxtail, Green [5, 18]: 80
- Plant response rating, Foxtail, Green [5, 19]: 50
- Plant response rating, Foxtail, Green [5, 20]: 5
- Plant response rating, Foxtail, Green [5, 21]: 50
- Plant response rating, Foxtail, Green [5, 22]: 50
- Foxtail, Green plant response rating [5, 23]: 98
- Plant response rating, Morningglory [6, 16]: 40
- Plant response rating, Morningglory [6, 17]: 65
- Plant response rating, Morningglory [6, 18]: 90
- Plant response rating, Morningglory [6, 19]: 60
- Plant response rating, Morningglory [6, 20]: 75
- Plant response rating, Morningglory [6, 21]: 90
- Plant response rating, Morningglory [6, 22]: 95
- Morningglory plant response rating [6, 23]: 95
- Plant response rating, Bromegrass, Downy [7, 16]: 10
- Plant response rating, Bromegrass, Downy [7, 17]: 40
- Plant response rating, Bromegrass, Downy [7, 18]: 85
- Plant response rating, Bromegrass, Downy [7, 19]: 30
- Plant response rating, Bromegrass, Downy [7, 20]: 0
- Plant response rating, Bromegrass, Downy [7, 21]: 5
- Plant response rating, Bromegrass, Downy [7, 22]: 5
- Bromegrass, Downy plant response rating [7, 23]: 50
- Plant response rating, Foxtail, Giant [8, 16]: 75
- Plant response rating, Foxtail, Giant [8, 17]: 95
- Plant response rating, Foxtail, Giant [8, 18]: 100
- Plant response rating, Foxtail, Giant [8, 19]: 85
- Plant response rating, Foxtail, Giant [8, 20]: 0
- Plant response rating, Foxtail, Giant [8, 21]: 65
- Plant response rating, Foxtail, Giant [8, 22]: 70
- Foxtail, Giant plant response rating [8, 23]: 80
- Plant response rating, Goosegrass [9, 16]: 85
- Plant response rating, Goosegrass [9, 17]: 98
- Plant response rating, Goosegrass [9, 18]: 100
- Plant response rating, Goosegrass [9, 19]: 95
- Plant response rating, Goosegrass [9, 20]: 98
- Plant response rating, Goosegrass [9, 21]: 100
- Plant response rating, Goosegrass [9, 22]: 100
- Goosegrass plant response rating [9, 23]: 100
- Plant response rating, Kochia (kochia (Kochia scoparia); [16]): 20
- Plant response rating, Kochia (kochia (Kochia scoparia); [17]): 100
- Plant response rating, Kochia (kochia (Kochia scoparia); [18]): 100
- Plant response rating, Kochia (kochia (Kochia scoparia); [19]): 80
- Plant response rating, Kochia (kochia (Kochia scoparia); [20]): 20
- Plant response rating, Kochia (kochia (Kochia scoparia); [21]): 70
- Plant response rating, Kochia (kochia (Kochia scoparia); [22]): 80
- Kochia plant response rating (kochia (Kochia scoparia); [23]): 90
- Plant response rating, Pigweed [10, 16]: 90
- Plant response rating, Pigweed [10, 18]: 100
- Plant response rating, Pigweed [10, 19]: 95
- Plant response rating, Pigweed [10, 20]: 98
- Plant response rating, Pigweed [10, 21]: 100
- Plant response rating, Pigweed [10, 22]: 100
- Pigweed plant response rating [10, 23]: 100
- Plant response rating, Cocklebur [11, 16]: 95
- Plant response rating, Cocklebur [11, 17]: 100
- Plant response rating, Cocklebur [11, 18]: 100
- Plant response rating, Cocklebur [11, 19]: 95
- Plant response rating, Cocklebur [11, 21]: 75
- Cocklebur plant response rating [11, 23]: 95
- Plant response rating, Wheat [12, 16]: 30
- Plant response rating, Wheat [12, 18]: 60
- Plant response rating, Wheat [12, 19]: 35
- Plant response rating, Wheat [12, 20]: 0
- Plant response rating, Wheat [12, 21]: 0
- Plant response rating, Wheat [12, 22]: 10
- Wheat plant response rating [12, 23]: 25
